Reference: US7071220B2, “N-substituted benzothiophenesulfonamide derivatives” (Toa Eiyo Ltd., priority 2000, dated 2006)
Residue numbers refer to the chain shown, from its start. Like-named read-outs stand apart in the source and are kept apart here.

Experiments:
Cathepsin G = target: T1, Cathepsin G (Homo sapiens, UniProt P08311); test: Measurement of cathepsin G inhibitory activity (Suc-Ala-Ala-Pro-Phe-pNA); type: biochemical; conditions: cathepsin G from human purulent sputum; 60 minutes at 37° C.
T1 construct: the product of Elastin Products Company, Inc. derived from human purulent sputum was used; purchased Elastin Products Company, Inc; host or cells: human purulent sputum
T1 sequence (P08311 21-244): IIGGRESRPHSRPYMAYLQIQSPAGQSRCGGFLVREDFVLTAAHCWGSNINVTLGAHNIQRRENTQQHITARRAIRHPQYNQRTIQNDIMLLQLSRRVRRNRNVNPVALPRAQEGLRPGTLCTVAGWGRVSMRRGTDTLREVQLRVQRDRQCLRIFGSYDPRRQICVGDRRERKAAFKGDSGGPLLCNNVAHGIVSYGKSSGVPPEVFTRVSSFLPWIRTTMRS
Protocol: (§1) Measurement of Cathepsin G Inhibitory Activity and Chymotrypsin Inhibitory Activity
(§2) Each activity of cathepsin G or chymotrypsin was measured by determining the amount of free p-nitroaniline quantitatively using a synthetic substrate that is colorless and yields colored product upon hydrolysis, by means of a spectrophotometer. Chymotrypsin Type I-S derived from bovine pancreas was purchased from SIGMA. As cathepsin G, the product of Elastin Products Company, Inc. derived from human purulent sputum was used. Suc-Ala-Ala-Pro-Phe-pNA (manufactured by SIGMA) was used as the synthetic substrate. An inhibitory effect of a compound on each enzyme was determined by the following method.
(§3) Each test compound (5 μmol) was weighed in a test tube and dissolved into 2 mL of DMSO. […] Then, 200 μL of 1 mmol/L substrate solution was added to initiate en enzymatic reaction under a temperature of 37° C.
(§4) Based on each inhibitory ratio, IC50 value was calculated.

hamster adhesion model = test: Investigation in hamster adhesion model; type: in vivo; conditions: 1 mL saline solution 10^−4 mol/L intraperitoneally; 4 weeks after operation; 5-grade score 0-4; control 2.0; p<0.05
Protocol: Investigation in Hamster Adhesion Model
Five-week-old female hamster (10 hamsters per each group) was anesthetized by administering intraperitoneally pentobarbital sodium (50 mg/kg) and, after midline incision at abdominal region, the uterus was rubbed with a cotton swab. Thereafter, 1 mL of saline solution of a test compound (Compound 24: 10^−4 mol/L) was added dropwise intraperitoneally, and then the incised part was sutured. On the other hand, as a control, saline alone was added dropwise, followed by a similar treatment.
After 4 weeks from the operation, the animals were slaughtered, the abdominal part was exposed and adhesion was investigated. The adhesion was judged using the following 5-grade scoring system and the data were analyzed according to Mann-Whitney U test.
(§5) 1: Very weak adhesion (film-like adhesion easily releasable)
(§6) 2: Limited adhesion (strong adhesion difficult to release at only one point)
(§7) 3: Wide-range adhesion (strong adhesion difficult to release at several points)
(§8) 4: Very strong adhesion (very strong adhesion impossible to release)

Human chymase = target: T2, Human chymase (Homo sapiens, UniProt P23946); test: Measurement of inhibitory activity of human chymase (Ang I substrate, His-Leu/OPT fluorescence)
T2 sequence (P23946 22-247): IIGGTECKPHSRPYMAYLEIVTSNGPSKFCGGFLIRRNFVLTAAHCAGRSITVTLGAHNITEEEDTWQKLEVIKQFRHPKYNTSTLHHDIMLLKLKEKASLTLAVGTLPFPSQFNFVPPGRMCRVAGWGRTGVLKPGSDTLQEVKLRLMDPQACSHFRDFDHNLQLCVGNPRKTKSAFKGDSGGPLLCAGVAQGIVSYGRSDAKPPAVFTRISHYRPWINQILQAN
Protocol: (§9) That is, the activity was measured by reacting free His-Leu formed together with Ang II with o-phthalaldehyde (hereinafter, abbreviated as OPT) to prepare a fluorescent derivative and determining the amount quantitatively by means of a fluorophotometer.
(§10) First, 3.6 μmol of each test compound was weighed in a test tube and was dissolved into 3 mL of DMSO. The DMSO solution was diluted 1000-fold with 20 mmol/L Tris-hydrochloric acid buffer solution (pH 8.0) containing 0.01% Triton X-100 and 0.5 mol/L potassium chloride to prepare 1.2×10^−6 mol/L solution, which was successively diluted with the buffer solution to prepare test sample solutions having concentrations of 1.2×10^−6 mol/L to 1.2×10^−9 mol/L. To 500 μL of the test sample solution of each concentration or buffer solution was added 50 μL of an enzyme solution, followed by 10 minutes of pre-incubation at 37° C. Then, 50 μL of 0.1 mmol/L Ang I solution was added to initiate a reaction. Human angiotensin I (manufactured by SIGMA) was employed as Ang I. The enzyme solution to be used for the reaction was adjusted so as to hydrolyze about 60% of substrate under the conditions, and the reaction wherein a buffer solution containing no enzyme was carried out as a blind test. […] Thereafter, the reaction mixture was centrifuged at 4° C. at 3,000 rpm for 10 minutes and 2 mL of 2 mol/L sodium hydroxide and 1 mL of methanol were added to 1 mL of the resulting supernatant. […] The measurement was repeated twice for each sample and blind test. The fluorescence intensity obtained by subtracting the average value at blind test from the average value thereof was determined as chymase activity.
(§11) In this regard, an enzymatic reaction using a buffer solution instead of the test sample solution was carried out as a control, and inhibitory ratio of chymase activity was determined as percentage by dividing the difference of subtraction of the activity at the addition of the test compound from the chymase activity at the control by the chymase activity at the control.

Chymotrypsin = target: T3, Chymotrypsin (Bos taurus, UniProt P00766); test: Measurement of chymotrypsin inhibitory activity (Suc-Ala-Ala-Pro-Phe-pNA); type: biochemical; conditions: Chymotrypsin Type I-S from bovine pancreas; 30 minutes at 37° C.
T3 construct: Chymotrypsin Type I-S derived from bovine pancreas; purchased SIGMA Type I-S; host or cells: bovine pancreas
Protocol: as §1, §2, §3, §4

[1] = tested on: rat cecum-scraped adhesion model; test: Investigation in rat cecum-scraped adhesion model; type: in vivo; conditions: 2 mL PBS solution 10^−5 mol/L intraperitoneally; 1 week after operation; control 63.6%
Protocol: Investigation in Rat Cecum-scraped Adhesion Model
Six-week-old SD rats were subjected to midline incision at lower abdominal region under pentobarbital anesthetization (70 mg/kg, intramuscular injection), and the cecum was taken out of the incised part. Two parts of serous membrane of the cecum (about 2 cm^2 each) were rubbed with a cotton swab a hundred times until petechial hemorrhage occurs, followed by dropwise addition of 100 μL of ethanol. The cecum was again set in abdominal cavity, and then, 2 mL of a phosphate buffered saline (hereinafter, abbreviated as PBS, pH 7.4) solution of a test compound (Compound 24 or 70) was added dropwise intraperitoneally, and then the incised part was sutured. The concentration of each test compound solution was 10^−5 mol/L in a control group, PBS alone was added dropwise, followed by a similar treatment. Each group had 11 or 12 rats. After 1 week from the operation, the animals were slaughtered, the abdominal part was re-incised and an adhesion state of the cecum was evaluated according to adhesion scores using the adhesion intensity and adhesion area as indexes. The score values were determined according to the following 5-grade scores. In this connection, adhered region (%) was determined as percentage of total area of the adhered parts relative to the area of the rubbed regions. […]

Simian chymase = target: T4, Simian chymase (Macaca mulatta, UniProt F6SAJ2); test: Measurement of inhibitory activity of simian chymase (Ang I substrate, His-Leu/OPT fluorescence); type: biochemical, rhesus monkey
T4 sequence (F6SAJ2 22-247 limits assumed): T2 sequence (P23946 22-247) with F29S, E63K, D159Y, S201L, Q221K, A225G
Protocol: as §9, §10, §11

Stability in rat plasma = type: in vitro ADME; conditions: 10 μg/mL, 37° C., 60 minutes, HPLC
Protocol: Stability of the compounds of the invention in rat plasma was investigated.
Male SD rats (7-week-old) were anesthetized with ether under over-night fasting conditions and, after an abdominal part was incised, blood was collected from aorta abdominalis using a heparinized disposable plastic syringe. The blood was centrifuged under cooling to collect a supernatant plasma. The collected plasma was stored under freezing at −30° C. and was melted before use. After a test compound was dissolved in DMSO, the solution was added to 200 μL of the plasma so as to be 10 μg/mL, followed by incubation at 37° C. After 60 minutes, the mixture was acidified by adding 200 μL of 0.1 mol/L hydrochloric acid, and then extracted twice with 2 mL of ethyl acetate. The resulting organic layer was evaporated to dryness under a nitrogen gas flow and the residue was dissolved into 200 μL of acetonitrile to prepare a sample solution. On the other hand, the test compound was dissolved into 1% acetonitrile solution of DMSO so as to be 10 μg/mL as a control solution. The sample solution and control solution was investigated by high performance liquid chromatography (hereinafter, abbreviated as HPLC). Residual ratio (%) was determined as percentage by dividing the peak area of the sample solution by the peak area of the control solution.
Column: Waters Nova Pack C18 (inner diameter: 3.9 mm, length: 150 mm)
Mobile phase A: acetonitrile/water=10/90
Mobile phase B: acetonitrile/methanol=50/50
Eluent: Mobile phase A-mobile phase B (100/0 to 0/100, linear gradient, 50 minutes)
Amount of injection: 50 μL

[2] = tested on: canine eye postoperative adhesion model; test: Investigation in canine eye postoperative adhesion model; type: in vivo, beagle dog; conditions: sponge with saline solution 10^−4 mol/L for 3 minutes; 7 days after operation; 5-grade score 0-4; control 3.67; p<0.05
Protocol: Investigation in Canine Eye Postoperative Adhesion Model
A beagle dog was anesthetized and each conjunctiva of both eyes thereof was peeled in a size of 10 mm×5 mm under a stereomicroscope. At that time, Tenon was left at conjunctival side and was not left at scleral side. After a sponge immersed in a saline solution of a test compound (Compound 70) was placed at the incised part for 3 minutes, the incised part was put in one stitch with 10-0 nylon thread. The concentration of the test compound solution was 10^−4 mol/L and a saline was used in a control group (6 dogs per each group).
After 7 days from the operation, the animals were slaughtered, the eyeballs were taken out and adhesion was investigated. After the thread used at the stitching in the model preparation was cut, evaluation was carried out by pulling the conjunctiva part with tweezers and scoring the adhesion state. The score values were determined according to the following 5-grade scores, and Mann-Whitney U test was used for analyzing the data.
as §5, §6, §7, §8

[3] = tested on: rat monocrotaline-induced pulmonary hypertension model; test: Test in rat monocrotaline-induced pulmonary hypertension model; type: in vivo
Protocol: Test in Rat Monocrotaline-Induced Pulmonary Hypertension Model
Into 1.2 mL of 1 mol/L hydrochloric acid was dissolved 200 mg of monocrotaline, followed by addition of 5 mL of distilled water. The solution was neutralized with 0.5 mol/L sodium hydroxide, and further diluted with distilled water so as to be 10 mL (20 mg/mL). Moreover, a solution containing the solvent alone without monocrotaline was prepared as Solvent A. A test compound was suspended into olive oil (25 mg/mL). Furthermore, a solution containing no test compound but the solvent alone was prepared as Solvent B.
Monocrotaline (60 mg/kg-body weight) was administrated subcutaneously at the posterior region of neck of five 5-week-old SD male rats. From 3 days before monocrotaline administration to 20 days after the administration, a test compound was administered intraperitoneally twice a day at a dose of 50 mg/kg-body weight. On the next day of the final administration of the test compound, the rats were fixed supinely under anesthetization with intraperitoneal administration of sodium pentobarbital. And then blood pressure was measured with cannula inserted from left carotid artery and systolic pressure at right ventricle was measured with cannula inserted from right […] and introduced into right ventricle, via a pressure transducer by means of a pressure-strain gauge. After slaughter of the animals, the heart was removed and weight of right ventricle, weight of left ventricle and septum, and diameter and medial thickness of pulmonary artery having a diameter within a range of 50 to 150 μm were measured. Moreover, from these measured values, a weight ratio of right ventricle/(left ventricle+septum) and medial thickening ratio {(medial thickness/outer diameter of the blood vessel)×100} were determined. In this regard, a group wherein the rats to which monocrotaline was administered was treated with Solvent B alone in an amount of 2 mL/kg-body weight in the same administration schedule as above was named “Solvent-administered group”. In addition, a group wherein the rats to which Solvent A was administered in an amount of 3 mL/kg-body weight was treated with Solvent B in an amount of 2 mL/kg-body weight was named “Monocrotaline-untreated group”.

[4] = chymase from heart of rhesus monkey, 120 minutes at 37° C., read-out: Simian chymase IC50 value
[5] = monocrotaline-treated SD male rats, 50 mg/kg intraperitoneally twice a day, 3 days before to 20 days after monocrotaline

IC50 (Cathepsin G)	IC50 (Human chymase)	IC50 (Chymotrypsin)	IC50 (Simian chymase; [4])	Residual ratio in rat plasma (Stability in rat plasma)	melting point	SMILES	average adhesion score (hamster adhesion model)	total percentage of scores 3 and 4 showing severe adhesions [1]	average adhesion score [2]	IC50 (Human chymase; read-out: Human cymase IC50 value, human chymase from silkworms infected with baculovirus, 120 minutes at 37° C.)	IC50 (Simian chymase)	Medial thickening ratio ([3]; (medial thickness/outer diameter of the blood vessel)×100, pulmonary artery 50 to 150 μm, 50 mg/kg intraperitoneally twice a day)	thickening of medial muscular layer (increase of medial thickening ratio) ([3]; monocrotaline-induced pulmonary hypertension, result in words)	Weight ratio of right ventricle/(left ventricle + septum) ([3]; monocrotaline-treated SD male rats, 50 mg/kg intraperitoneally twice a day)	Average blood pressure [3, 5]	Systolic pressure at right ventricle [3, 5]	Weight of right ventricle [3, 5]
> 10 µM	0.037 µM	> 10 µM	0.002 µM	100%	207 to 208 °C	Cc1c(S(=O)(=O)Nc2ccc(-c3nc(C(=O)O)co3)cc2S(C)(=O)=O)sc2ccc(F)cc12 [Compound 24, 2-[4-(5-fluoro-3-methylbenzo[b]thiophene-2-sulfonylamino)-3-methanesulfonylphenyl]oxazole-4-carboxylic acid]	0.9	41.7%									
> 10 µM	0.007 µM	> 10 µM	0.0004 µM			Cc1c(S(=O)(=O)Nc2ccc(-c3nc(C(=O)O)cs3)cc2S(C)(=O)=O)sc2ccc(F)cc12 [Compound 70, 2-[4-(5-fluoro-3-methylbenzo[b]thiophene-2-sulfonylamino)-3-methanesulfonylphenyl]thiazole-4-carboxylic Acid]			2.67								
> 1 µM		> 1 µM				COC(=O)c1ccc(NS(=O)(=O)c2sc3ccc(Cl)cc3c2C)c(OC)c1 [Compound 7, Methyl 4-(5-chloro-3-methylbenzo[b]thiophene-2-sulfonylamino)-3-methoxybenzoate]		33.3%									

SMILES	IC50 (Cathepsin G)	IC50 (Human chymase)	IC50 (Chymotrypsin)	IC50 (Simian chymase; [4])	Residual ratio in rat plasma (Stability in rat plasma)	melting point	average adhesion score (hamster adhesion model)	total percentage of scores 3 and 4 showing severe adhesions [1]	average adhesion score [2]	IC50 (Human chymase; read-out: Human cymase IC50 value, human chymase from silkworms infected with baculovirus, 120 minutes at 37° C.)	IC50 (Simian chymase)	Medial thickening ratio ([3]; (medial thickness/outer diameter of the blood vessel)×100, pulmonary artery 50 to 150 μm, 50 mg/kg intraperitoneally twice a day)	thickening of medial muscular layer (increase of medial thickening ratio) ([3]; monocrotaline-induced pulmonary hypertension, result in words)	Weight ratio of right ventricle/(left ventricle + septum) ([3]; monocrotaline-treated SD male rats, 50 mg/kg intraperitoneally twice a day)	Average blood pressure [3, 5]	Systolic pressure at right ventricle [3, 5]	Weight of right ventricle [3, 5]
COC(=O)c1ccc(NS(=O)(=O)c2sc3ccc(F)cc3c2C)c(S(C)(=O)=O)c1 [Compound 17, methyl 4-(5-fluoro-3-methylbenzo[b]thiophene-2-sulfonylamino)-3-methanesulfonylbenzoate]	> 10 µM		> 10 µM							0.056 µM	0.009 µM	10.55 ± 1.80	suppressed	0.39 ± 0.04	111 ± 19 mmHg	57 ± 11	233 ± 24 mg
